Read-outs that look alike come from different tables or passages of the source.

Experimental findings from article PMC11605732, “In vitro screening of UGT2B10 in silico prioritized putative ligands from drugs used in the pediatric hematopoietic stem cell transplantation setting” (Pharmacology Research & Perspectives, 2024) are described below.

In data set [1] the target is T1, UGT2B10 (Homo sapiens, UniProt P36537).
T1 construct: recombinant UGT2B10
T1 sequence (P36537 24-528): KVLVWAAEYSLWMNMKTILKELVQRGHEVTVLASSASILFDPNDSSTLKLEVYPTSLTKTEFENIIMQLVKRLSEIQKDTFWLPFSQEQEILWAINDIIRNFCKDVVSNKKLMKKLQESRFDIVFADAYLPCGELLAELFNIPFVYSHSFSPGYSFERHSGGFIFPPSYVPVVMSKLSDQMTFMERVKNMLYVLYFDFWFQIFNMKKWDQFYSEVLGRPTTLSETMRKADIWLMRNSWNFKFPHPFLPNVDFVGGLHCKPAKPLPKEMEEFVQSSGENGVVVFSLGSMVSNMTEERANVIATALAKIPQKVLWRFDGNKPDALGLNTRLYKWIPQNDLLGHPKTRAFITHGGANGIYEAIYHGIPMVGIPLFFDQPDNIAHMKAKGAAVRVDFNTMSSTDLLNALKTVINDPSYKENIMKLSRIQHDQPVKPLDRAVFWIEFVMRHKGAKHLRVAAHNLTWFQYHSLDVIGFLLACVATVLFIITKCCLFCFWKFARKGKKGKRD
In words: inhibition of cotinine N-glucuronidation at […], UHPLC-MS/MS. The class given is biochemical. To be noted: read-out: % inhibition at 10 μM.

Data set [2] deals with T1, UGT2B10. The experiment in a line: inhibition of cotinine N-glucuronidation by recombinant enzyme, UHPLC-MS/MS. The class given is biochemical.
In data set [3] the target is T2, UGT1A6 (Homo sapiens, UniProt P19224).
T2 construct: recombinant UGT1A6
T2 sequence (P19224 27-532): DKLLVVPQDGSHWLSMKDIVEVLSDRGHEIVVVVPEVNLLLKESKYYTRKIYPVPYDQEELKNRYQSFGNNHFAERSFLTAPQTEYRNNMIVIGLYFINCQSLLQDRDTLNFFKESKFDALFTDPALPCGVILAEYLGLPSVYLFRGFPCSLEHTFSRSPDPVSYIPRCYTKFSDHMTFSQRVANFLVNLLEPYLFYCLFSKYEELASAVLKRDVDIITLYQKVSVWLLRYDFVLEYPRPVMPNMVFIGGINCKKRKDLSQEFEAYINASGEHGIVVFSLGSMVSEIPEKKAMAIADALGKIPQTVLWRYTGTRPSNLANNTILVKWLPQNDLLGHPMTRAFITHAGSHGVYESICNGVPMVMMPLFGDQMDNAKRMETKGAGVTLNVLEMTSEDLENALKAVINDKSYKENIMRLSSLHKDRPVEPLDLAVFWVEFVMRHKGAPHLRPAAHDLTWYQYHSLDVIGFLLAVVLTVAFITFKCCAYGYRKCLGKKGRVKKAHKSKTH
The experiment in a line: glucuronide formation by recombinant enzyme, UHPLC-MS/MS. The class given is biochemical.

Substrate in data set [4]: CN1C(=O)CC[C@H]1c1cccnc1
The experiment in a line: purified protein. To be noted: UDPGA; MgCl2.

For the molecule `CN(C)CCC=C1c2ccccc2CCc2ccccc21` [AMT, amitriptyline], the inhibition at 10 µM in data set [1] was determined as 97.5%.
On to `COc1c(C)c2c(c(O)c1C/C=C(\C)CCC(=O)O)C(=O)OC2` [MPA, mycophenolic acid], for which, in data set [2] (read-out: IC50), the IC50 amounted to 380 µM. The “glucuronide formation by recombinant enzyme, UHPLC-MS/MS” value in data set [3] is “incubations of APAP and MPA with UGT1A6 produced APAP‐glucuronide and MPA‐ß‐D‐glucuronide, respectively”.
Consider `CC(=O)Nc1ccc(O)cc1` [APAP, acetaminophen], for which the “glucuronide formation by recombinant enzyme, UHPLC-MS/MS” value in data set [3] is “incubations of APAP and MPA with UGT1A6 produced APAP‐glucuronide and MPA‐ß‐D‐glucuronide, respectively”.
`O=C1Nc2ccc(Cl)cc2C(c2ccccc2Cl)=NC1O` (stereo not drawn) [LOR, lorazepam]: the half-inhibitory concentration (IC50) in data set [2] was determined as 0.01 µM.

B1: UGT2B10 (Homo sapiens) (protein)
chain: KVLVWAAEYSLWMNMKTILKELVQRGHEVTVLASSASILFDPNDSSTLKLEVYPTSLTKTEFENIIMQLVKRLSEIQKDTFWLPFSQEQEILWAINDIIRNFCKDVVSNKKLMKKLQESRFDIVFADAYLPCGELLAELFNIPFVYSHSFSPGYSFERHSGGFIFPPSYVPVVMSKLSDQMTFMERVKNMLYVLYFDFWFQIFNMKKWDQFYSEVLGRPTTLSETMRKADIWLMRNSWNFKFPHPFLPNVDFVGGLHCKPAKPLPKEMEEFVQSSGENGVVVFSLGSMVSNMTEERANVIATALAKIPQKVLWRFDGNKPDALGLNTRLYKWIPQNDLLGHPKTRAFITHGGANGIYEAIYHGIPMVGIPLFFDQPDNIAHMKAKGAAVRVDFNTMSSTDLLNALKTVINDPSYKENIMKLSRIQHDQPVKPLDRAVFWIEFVMRHKGAKHLRVAAHNLTWFQYHSLDVIGFLLACVATVLFIITKCCLFCFWKFARKGKKGKRD
Turning to B1, in data set [4], the Michaelis constant (Km) amounted to 4.043 mM.

What is called inhibition is the share of the control response that was lost under treatment. The IC50 is the midpoint of a concentration-inhibition curve. A word on the Km: it is the substrate concentration at which the rate is half of its maximum.
